Test results from patent US20250108038A1 (priority 2023, published 2025).
Entries after “also recorded” stand apart in the source; their conditions may differ. Like-named read-outs stand apart in the source and are kept apart here.

How the values were obtained:
[1] = in vitro; details: for % Remaining / Aa/Ai Mean (N = 2) / T1/2: 2.0 μM; for T1/2: 60 min incubation
[2] = tested on: human red blood cells; assay: Hemolysis study in human blood; type: cell-based; details: 60 min, 37° C.; for % RBC lysis (hemolytic potential): test articles 25, 50, 100 μM, amphotericin B 1, 10, 30, 100 μM
Procedure: FIG. 4A. […] Compound I-19 in human blood. Red blood cells were isolated from whole blood and resuspended in PBS. […] (final concentrations 25, 50, and 100 μM) and the mixtures were incubated at 37° C. for 60 min. After the incubation, the samples were centrifuged and the absorbance of 100 μL of supernatant was read at 410 nm. % RBC lysis is expressed relative to 100% lysis control. Values represent mean+SEM of n=3 separate experiments.
FIG. 4B. Hemolytic Potential of Compound I-4 in human blood. Red blood cells were isolated from whole blood and resuspended in PBS. 190 μL of diluted RBC suspension and 10 μL of Compound I-4 solutions were mixed at 0 min. (final concentrations 25, 50, and 100 μM) and the mixtures were incubated at 37° C. for 60 min. After the incubation, the samples were centrifuged and the absorbance of 100 μL of supernatant was read at 410 nm. % RBC lysis is expressed relative to 100% lysis control. Values represent mean+SEM of n=3 separate experiments.
FIG. 4C. Hemolytic Potential of Amphotericin B in human blood (positive assay control). Red blood cells were isolated from whole blood and resuspended in PBS. 190 μL of diluted RBC suspension and 10 μl of amphotericin B solutions were mixed at 0 min. (final concentrations 1, 10, 30, and 100 μM) and the mixtures were incubated at 37° C. for 60 min. After the incubation, the samples were centrifuged and the absorbance of 100 μL of supernatant was read at 410 nm. % RBC lysis is expressed relative to 100% lysis control. Values represent mean+SEM of n=3 separate experiments.
To a clear 96-well V-bottom polystyrene plate, the test articles (10 μL) and the diluted RBCs (190 μL) from human or rat blood were mixed for final concentrations of 25, 50, and 100 μM. The reaction mixture was incubated at 37° C. for 60 min. Following the exposure period, the plates were centrifuged. After centrifugation, 70 μL of supernatant (without disturbing the pellet) was transferred to a clean and clear polystyrene flat bottomed 96-well plate and the absorbance of the sample at a single wavelength was measured using a BioTech Synergy H1 Plate Reader at a wavelength of 410 nm. The positive control for this assay was amphotericin B test at concentrations of 1, 10, 30, and 100 μM.

[3] = molecular target: BSEP (Homo sapiens, UniProt O95342); assay: Vesicular transport inhibition assay, BSEP (taurocholate); details: for Maximum % inhibition: BSEP, inside-out membrane vesicles, TC (0.2 μM), NIO: No inhibition observed
Procedure: Vesicular transport assays were performed with inside-out membrane vesicles prepared from cells overexpressing human ABC (efflux) transporters. The transporters were expressed by SOLVO Biotechnology in mammalian (HEK293) cells. The mammalian cells were stably transfected with the ABC transporter of interest. The assays were conducted according to the actual SOLVO VT assay protocols (PR-ASY-VT-General Protocol for Vesicular Transport Inhibition Assays).
The membrane vesicle suspension was mixed with the ice-cold transport buffer, then the probe substrate solution was added. […] (for BCRP and MDR1). […] Reactions were quenched by the addition of 200 μL of ice-cold washing buffer and immediate filtration via glass fiber filters mounted to a 96-well plate (filter plate). The filters were washed (5×200 μL of ice-cold washing buffer), dried and the amount of substrate inside the filtered vesicles was determined by liquid scintillation counting.
Incubation with AMP provided background activity values for all data points.

[4] = molecular target: T1, MATE1 (Homo sapiens, UniProt Q96FL8); assay: Uptake transporter inhibition assay, MATE1 (metformin)
T1 sequence (Q96FL8 1-570): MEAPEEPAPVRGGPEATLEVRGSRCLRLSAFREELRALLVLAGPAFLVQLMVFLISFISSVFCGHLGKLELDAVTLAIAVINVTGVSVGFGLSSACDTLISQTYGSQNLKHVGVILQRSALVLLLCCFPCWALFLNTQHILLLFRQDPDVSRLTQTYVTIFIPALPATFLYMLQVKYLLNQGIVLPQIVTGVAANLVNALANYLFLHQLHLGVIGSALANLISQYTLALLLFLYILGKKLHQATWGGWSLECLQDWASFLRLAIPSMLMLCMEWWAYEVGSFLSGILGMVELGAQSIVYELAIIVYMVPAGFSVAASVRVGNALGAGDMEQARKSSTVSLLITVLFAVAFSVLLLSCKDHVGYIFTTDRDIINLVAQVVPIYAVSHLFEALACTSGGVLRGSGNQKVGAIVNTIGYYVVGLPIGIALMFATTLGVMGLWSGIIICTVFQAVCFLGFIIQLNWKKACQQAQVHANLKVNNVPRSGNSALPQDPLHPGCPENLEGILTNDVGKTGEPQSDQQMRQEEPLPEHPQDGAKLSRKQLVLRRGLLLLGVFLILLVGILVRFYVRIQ
Procedure: Uptake experiments were performed using HEK293 cells stably expressing the respective uptake transporters.
Cells were cultured at 37° C. in a humidified atmosphere containing 5% CO2 and were plated onto standard 96-well tissue culture plates.
Before the experiment, the medium was removed, and the cells were washed twice with 100 μL of pre-warmed (37° C.) assay buffer listed in Table 15. The cells were pre-incubated at 37° C. for 30 minutes in assay buffer containing the test article at appropriate concentrations (Table 16), appropriate solvents for solvent controls and the reference inhibitor for reference inhibitor wells. After the pre-incubation step solutions were removed. Uptake experiments were performed at 37° C. in 50 μL of assay buffer containing the probe substrate and the test article or solvent and controls.
After the experiment, cells were washed twice with 100 μL of appropriate cold buffer and lysed with 150 μL scintillation cocktail. Radiolabeled probe substrate transport was determined by liquid scintillation counting.
Uptake of the probe substrate in control cells provided background activity values for all data points.

[5] = 2-concentration assay, up to 100 μM (Compound A up to 35 μM)
[6] = 0.04 μM nominal, IC50 determination
[7] = 0.12 μM nominal, IC50 determination
[8] = 1.11 μM nominal, IC50 determination
[9] = 10.00 μM nominal, IC50 determination
[10] = 30.00 μM nominal, IC50 determination
[11] = 0.14 μM nominal, follow-up assay
[12] = 1.24 μM nominal, follow-up assay
[13] = 11.11 μM nominal, follow-up assay
[14] = 33.33 μM nominal, follow-up assay
[15] = 100.00 μM nominal, follow-up assay
[16] = 0.14 μM nominal, 0.08 μM NSB corrected, follow-up assay
[17] = 1.24 μM nominal, 0.79 μM NSB corrected, follow-up assay
[18] = 10.00 μM nominal, 6.50 μM NSB corrected
[19] = 11.11 μM nominal, 6.11 μM NSB corrected, follow-up assay
[20] = 33.33 μM nominal, 20.33 μM NSB corrected, follow-up assay
[21] = 100.00 μM nominal, 67.00 μM NSB corrected
[22] = 100.00 μM nominal, […] NSB corrected, follow-up assay
[23] = […] nominal, 2.37 μM NSB corrected, follow-up assay

Sequence of BSEP (O95342 whole entry): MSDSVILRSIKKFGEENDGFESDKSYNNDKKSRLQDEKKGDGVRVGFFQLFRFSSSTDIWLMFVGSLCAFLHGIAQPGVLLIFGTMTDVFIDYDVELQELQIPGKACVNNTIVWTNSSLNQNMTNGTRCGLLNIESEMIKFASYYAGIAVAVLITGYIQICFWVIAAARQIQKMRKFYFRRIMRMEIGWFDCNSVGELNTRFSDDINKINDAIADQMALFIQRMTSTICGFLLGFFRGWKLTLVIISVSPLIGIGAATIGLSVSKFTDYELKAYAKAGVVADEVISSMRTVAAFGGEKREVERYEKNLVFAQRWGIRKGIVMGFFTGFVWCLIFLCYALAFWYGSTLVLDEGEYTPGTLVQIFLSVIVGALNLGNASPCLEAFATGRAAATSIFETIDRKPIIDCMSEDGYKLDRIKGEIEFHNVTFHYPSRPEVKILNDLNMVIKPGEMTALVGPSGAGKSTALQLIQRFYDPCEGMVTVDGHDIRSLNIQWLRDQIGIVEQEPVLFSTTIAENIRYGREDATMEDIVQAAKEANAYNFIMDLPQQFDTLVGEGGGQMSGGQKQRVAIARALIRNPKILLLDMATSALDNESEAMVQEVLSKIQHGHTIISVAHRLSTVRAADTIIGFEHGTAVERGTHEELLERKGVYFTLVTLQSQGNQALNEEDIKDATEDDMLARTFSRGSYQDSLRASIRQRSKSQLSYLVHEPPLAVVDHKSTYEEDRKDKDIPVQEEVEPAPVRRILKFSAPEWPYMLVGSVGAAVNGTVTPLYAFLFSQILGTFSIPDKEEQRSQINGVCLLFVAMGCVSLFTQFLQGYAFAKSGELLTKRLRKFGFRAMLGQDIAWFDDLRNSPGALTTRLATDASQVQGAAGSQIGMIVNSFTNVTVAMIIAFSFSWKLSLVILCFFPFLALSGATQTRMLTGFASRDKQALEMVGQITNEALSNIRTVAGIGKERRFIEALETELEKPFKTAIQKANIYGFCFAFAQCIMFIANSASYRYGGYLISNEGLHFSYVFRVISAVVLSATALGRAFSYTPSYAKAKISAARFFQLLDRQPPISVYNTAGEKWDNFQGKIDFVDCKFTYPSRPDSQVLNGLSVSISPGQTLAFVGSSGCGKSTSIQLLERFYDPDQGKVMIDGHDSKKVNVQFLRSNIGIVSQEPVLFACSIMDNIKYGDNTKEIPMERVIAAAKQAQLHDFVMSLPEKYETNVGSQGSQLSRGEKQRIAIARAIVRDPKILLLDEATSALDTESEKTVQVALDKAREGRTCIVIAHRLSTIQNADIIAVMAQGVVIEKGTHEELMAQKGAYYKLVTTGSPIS

## COCCOC1(c2ccc(Cl)cc2)c2ccccc2C2=NCCN21 (centres unmarked) [Compound I-4]
[1]; 0 min
  Compound A formed (Aa/Ai): 0.55
  % Remaining: 100%
  Aa/Ai Mean (N = 2): 3.23
[1]; 5 min
  % Remaining: 105%
  Aa/Ai Mean (N = 2): 3.39
  Compound A formed (Aa/Ai): 0.61
[1]; 15 min
  % Remaining: 107%
  Aa/Ai Mean (N = 2): 3.46
  Compound A formed (Aa/Ai): 0.60
[1]; 30 min
  % Remaining: 101%
  Aa/Ai Mean (N = 2): 3.27
  Compound A formed (Aa/Ai): 0.53
[1]; 60 min
  % Remaining: 92.6%
  Aa/Ai Mean (N = 2): 2.99
  Compound A formed (Aa/Ai): 0.42
[1]
  T1/2: >3.12 h
[2]
  EC50 (% RBC lysis): outside the concentration range tested
  % RBC lysis (hemolytic potential): no detectable hemolysis

## OC1(c2ccc(Cl)cc2)c2ccccc2C2=NCCN21 (centres unmarked) [Compound A, 5-(4-chlorophenyl)-2,3-dihydroimidazo[1,2-b]isoindol-5-ol, reference compound]
[3]; [5]
  maximum inhibition of BSEP-mediated taurocholate accumulation: did not inhibit; also recorded: not an in vitro inhibitor
[3]
  Maximum % inhibition: NIO
[3]; human
  inhibition at 35 μM: 2%
[4]
  IC50: 3.87 µM
[4]; [6]
  Relative transporter specific accumulation: 106.48 ± 4.34 % of control
  Transporter specific accumulation: 471.00 ± 14.24 cpm
[4]; [7]
  Relative transporter specific accumulation: 92.92 ± 5.23 % of control
  Transporter specific accumulation: 411.00 ± 20.23 cpm
[4]; [8]
  Relative transporter specific accumulation: 69.86 ± 2.64 % of control
  Transporter specific accumulation: 309.00 ± 8.08 cpm
[4]; 3.00 μM nominal
  Relative transporter specific accumulation: 54.89 ± 4.37 % of control
  Transporter specific accumulation: 181.33 ± 14.06 cpm
[4]; [9]
  Relative transporter specific accumulation: 38.96 ± 1.63 % of control
  Transporter specific accumulation: 172.33 ± 5.44 cpm
[4]; 30.00 μM nominal
  Relative transporter specific accumulation: 20.18 ± 1.49 % of control
  Transporter specific accumulation: 66.67 ± 4.78 cpm
[4]; [10]
  Relative transporter specific accumulation: 20.65 ± 0.69 % of control
  Transporter specific accumulation: 91.33 ± 1.76 cpm
[4]; human, Maximum % inhibition, MATE1, HEK293 cells, metformin (10 μM), NIO: no inhibition observed
  inhibition at 10 µM: 79%
[4]; human, Relative inhibition, 0.04 μM nominal, IC50 determination
  inhibition at 0.04 μM: -6%
[4]; human, Relative inhibition, 0.12 μM nominal, IC50 determination
  inhibition at 0.12 μM: 7%
[4]; human, Relative inhibition, 1.11 μM nominal, IC50 determination
  inhibition at 1.11 μM: 30%
[4]; human, Relative inhibition, 3.00 μM nominal
  inhibition at 3 μM: 45%
[4]; human, Relative inhibition, 10.00 μM nominal, IC50 determination
  inhibition at 10 µM: 61%
[4]; human, Relative inhibition, 30.00 μM nominal
  inhibition at 30 μM: 80%
[4]; human, Relative inhibition, 30.00 μM nominal, IC50 determination
  inhibition at 30 μM: 79%

## Clc1ccc(C2(OCC3OCCO3)c3ccccc3C3=NCCN32)cc1 (centres unmarked) [Compound I-19]
[3]; [11]
  ATP-dependent transport: 5,664.33 ± 228.93 cpm
  Relative ATP-dependent transport: 114.35 ± 6.07 % of control
  Relative inhibition: −14%
[3]; [12]
  ATP-dependent transport: 4,919.33 ± 50.10 cpm
  Relative ATP-dependent transport: 99.31 ± 4.70 % of control
  Relative inhibition: 1%
[3]; 10.00 μM nominal
  ATP-dependent transport: 4,410.33 ± 297.54 cpm
  Relative ATP-dependent transport: 90.09 ± 6.36 % of control
  Relative inhibition: 10%
[3]; [13]
  ATP-dependent transport: 4,442.00 ± 98.02 cpm
  Relative ATP-dependent transport: 89.68 ± 4.59 % of control
  Relative inhibition: 10%
[3]; [14]
  ATP-dependent transport: 3,105.00 ± 99.98 cpm
  Relative ATP-dependent transport: 62.69 ± 3.53 % of control
  Relative inhibition: 37%
[3]; 100.00 μM nominal
  ATP-dependent transport: 1,103.00 ± 205.45 cpm
  Relative ATP-dependent transport: 22.53 ± 4.22 % of control
  Relative inhibition: 77%
[3]; [15]
  ATP-dependent transport: 1,333.33 ± 146.13 cpm
  Relative ATP-dependent transport: 26.92 ± 3.20 % of control
  Relative inhibition: 73%
[3]; [5]
  maximum inhibition of BSEP-mediated taurocholate accumulation: 77%
[3]
  Maximum % inhibition: 73%
[3]; follow-up assay
  maximum inhibition of BSEP-mediated taurocholate accumulation: 73%
[3]; follow-up assay, bottom constrained to 0
  IC50: 45.3 µM
[1]; 0 min
  Compound A formed (Aa/Ai): 0.63
  % Remaining: 100%
  Aa/Ai Mean (N = 2): 1.80
[1]; 5 min
  % Remaining: 97.6%
  Aa/Ai Mean (N = 2): 1.76
  Compound A formed (Aa/Ai): 0.65
[1]; 15 min
  % Remaining: 97.2%
  Aa/Ai Mean (N = 2): 1.75
  Compound A formed (Aa/Ai): 0.63
[1]; 30 min
  % Remaining: 93.9%
  Aa/Ai Mean (N = 2): 1.69
  Compound A formed (Aa/Ai): 0.53
[1]; 60 min
  Aa/Ai Mean (N = 2): 1.25
  Compound A formed (Aa/Ai): 0.38
[1]
  T1/2: 1.95 h
[4]; [16]
  Relative inhibition: 5%
  Relative transporter specific accumulation: 95.19 ± 6.24 % of control
  Transporter specific accumulation: 468.00 ± 24.27 cpm
[4]; [17]
  Relative inhibition: 19%
  Relative transporter specific accumulation: 81.36 ± 3.96 % of control
  Transporter specific accumulation: 400.00 ± 11.06 cpm
[4]; [18]
  Relative inhibition: 54%
  Relative transporter specific accumulation: 45.62 ± 4.36 % of control
  Transporter specific accumulation: 173.67 ± 6.31 cpm
[4]; [19]
  Relative inhibition: 63%
  Relative transporter specific accumulation: 37.02 ± 4.79 % of control
  Transporter specific accumulation: 182.00 ± 22.40 cpm
[4]; [20]
  Relative inhibition: 88%
  Relative transporter specific accumulation: 11.73 ± 1.78 % of control
  Transporter specific accumulation: 57.67 ± 8.46 cpm
[4]; [21]
  Relative inhibition: 101%
  Relative transporter specific accumulation: −1.49 ± 0.63 % of control
  Transporter specific accumulation: −5.67 ± 2.36 cpm
[4]; [22]
  Relative inhibition: 104%
  Relative transporter specific accumulation: −4.47 ± 0.42 % of control
  Transporter specific accumulation: −22.00 ± 1.89 cpm
[4]; 2-concentration assay, Compound I-19 100 μM, Compound A 30 μM, Compound B 50 μM
  maximum inhibition of MATE1-mediated metformin accumulation: completely inhibited
[4]; MATE1, HEK293 cells, metformin (10 μM), NIO: no inhibition observed
  Maximum % inhibition: 104%
[4]; [23]
  Relative inhibition: 30%
  Relative transporter specific accumulation: 70.03 ± 4.41 % of control
  Transporter specific accumulation: 344.33 ± 16.76 cpm
[4]; follow-up assay, NSB-corrected concentrations for Compound I-19
  IC50: 8.86 µM
[2]
  EC50 (% RBC lysis): outside the concentration range tested
  % RBC lysis (hemolytic potential): no detectable hemolysis
